Measurements reported in patent US20250144067A1, “PERSONALIZED STARVATION THERAPY FOR CANCER” (Faeth Therapeutics, Inc., priority 2021, published 2025).
Counter-ions that a name gives are not always drawn.

Experiments:
[1] = tested on: NCI-H292 lung cancer cells; assay: FDA drug screening, complete media vs cholesterol-free media with simvastatin (TABLE 2); assay type: cell-based, human; details: for Cholesterol-free media + simvastatin (0.04 μM) / Complete Media: NCI-H292 cells
[2] = tested on: NCI-H292 lung cancer cells; assay: FDA drug screening, complete media vs cholesterol-free media without statin (TABLE 1); assay type: cell-based, human
[3] = cholesterol-free media with simvastatin 0.04 μM, FDA drug library screen (TABLE 2)
[4] = complete media, FDA drug library screen (TABLE 2)
[5] = complete media minus cholesterol-free media + simvastatin (0.04 μM), >0 enhanced anti-cancer activity, about 0 neutral, <0 antagonist
[6] = NCI-H292 cells, cholesterol-free media without statin, FDA drug library screen
[7] = complete vs cholesterol-free media, >0 enhanced anti-cancer activity, about 0 neutral, <0 antagonist
[8] = FDA drug library screen, cholesterol-free media with simvastatin 0.04 μM
[9] = FDA drug library screen, complete media
[10] = complete media vs cholesterol-free media + simvastatin (0.04 μM), >0 enhanced anti-cancer activity, about 0 neutral, <0 antagonist
[11] = Complete minus Cholesterol-free, >0 enhanced anti-cancer activity, about 0 neutral, <0 antagonist
[12] = NCI-H292 cells, cholesterol-free media without statin
[13] = complete media minus cholesterol-free media + simvastatin, >0 enhanced anti-cancer activity, about 0 neutral, <0 antagonist
[14] = NCI-H292 cells, complete media, FDA drug library screen
[15] = drug in cholesterol-free media with simvastatin 0.04 μM
[16] = Complete minus Cholesterol-free, greater than 0 enhanced anti-cancer activity, about 0 neutral, below 0 antagonists
[17] = NCI-H292 cells in cholesterol-free media without statin
[18] = NCI-H292 cells in complete media
[19] = FDA library drug in cholesterol-free media with simvastatin 0.04 μM
[20] = FDA library drug in complete media
[21] = complete vs cholesterol-free media, greater than 0 enhanced anti-cancer activity, about 0 neutral, below 0 antagonists
[22] = Complete minus Cholesterol-free, greater than 0 enhanced anti-cancer activity, about 0 neutral, below 0 antagonist
[23] = NCI-H292 cells, FDA drug library screen, cholesterol-free media without statin
[24] = NCI-H292 cells, FDA drug library screen, complete media
[25] = cholesterol-free media with simvastatin 0.04 μM, cell growth value in FDA drug screen
[26] = complete media, cell growth value in FDA drug screen
[27] = complete media vs cholesterol-free media + simvastatin (0.04 μM), […]
[28] = Complete minus Cholesterol-free, […]

Molecule: O=C1OCCN1/N=C/c1ccc([N+](=O)[O-])o1 [Furazolidone]
- Cholesterol-free media + simvastatin (0.04 μM) [1, 3]: 0.938
- Complete Media [1, 4]: 0.9029
- Difference [1, 5]: −0.04
- Cholesterol-free [2, 6]: 0.797
- Difference [2, 7]: 0.35

Molecule: Nc1cc(N2CCCCC2)nc(N)[n+]1OS(=O)(=O)[O-] [Minoxidil sulfate]
- Cholesterol-free media + simvastatin (0.04 μM) [1, 8]: 1.144
- Complete Media [1, 9]: 1.047
- Difference [1, 10]: −0.10
- Difference [2, 11]: −0.27
- Cholesterol-free [2, 12]: 1.329
- Complete ([2]; NCI-H292 cells, complete media): 1.056

Molecule: Cc1cn([C@H]2O[C@@H](CO)[C@H](O)[C@H]2F)c(=O)[nH]c1=O [Clevudine]
- Cholesterol-free media + simvastatin (0.04 μM) [1, 8]: 0.7152
- Complete Media [1, 9]: 0.881
- Difference [1, 13]: 0.17
- Difference [2, 11]: −0.06
- Cholesterol-free [2, 6]: 0.975
- Complete [2, 14]: 0.9127

Molecule: CC(C)(C)C(=O)OCOC(=O)[C@@H]1N2C(=O)[C@@H](/N=C/N3CCCCCC3)[C@H]2SC1(C)C [Pivmecillinam (hydrochloride)]
- Cholesterol-free media + simvastatin (0.04 μM) [1, 15]: 1.219
- Complete Media ([1]; drug in complete media): 1.044
- Difference [1, 10]: −0.18
- Difference [2, 16]: −0.49
- Cholesterol-free [2, 17]: 1.646
- Complete [2, 18]: 1.161

Molecule: Ketanserin (tartrate)
- Cholesterol-free media + simvastatin (0.04 μM) [1, 15]: 1.267
- Difference [1, 10]: −0.22
- Difference [2, 11]: 0.03
- Cholesterol-free [2, 6]: 0.9853
- Complete [2, 14]: 1.019

Molecule: CCCCOc1cc(C(=O)OCCN(CC)CC)ccc1N [Oxybuprocaine hydrochloride]
- Cholesterol-free media + simvastatin (0.04 μM) [1, 8]: 0.4662
- Complete Media [1, 9]: 1.022
- Difference [1, 13]: 0.56
- Cholesterol-free [2, 6]: 0.7998
- Complete [2, 14]: 0.9021
- Difference [2, 7]: 0.10

Molecule: CN1CCc2c(c3ccccc3n2Cc2ccccc2)C1 [Mebhydrolin]
- Cholesterol-free media + simvastatin (0.04 μM) [1, 8]: 0.7768
- Complete Media [1, 9]: 0.6781
- Difference [1, 10]: −0.10
- Difference [2, 11]: −0.31
- Cholesterol-free [2, 12]: 1.813
- Complete ([2]; NCI-H292 cells, complete media): 1.508

Molecule: CNC(=O)c1cc(Oc2ccc(NC(=O)Nc3ccc(Cl)c(C(F)(F)F)c3)c(F)c2)ccn1 [Regorafenib (monohydrate)]
- Cholesterol-free media + simvastatin (0.04 μM) [1, 19]: 1.311
- Complete Media [1, 20]: 0.728
- Difference [1, 10]: −0.58
- Cholesterol-free [2, 12]: 1.026
- Complete ([2]; NCI-H292 cells, complete media): 0.6282
- Difference [2, 21]: −0.40

Molecule: Cn1cnc2c(F)c(Nc3ccc(Br)cc3Cl)c(C(=O)NOCCO)cc21 [Selumetinib]
- Cholesterol-free media + simvastatin (0.04 μM) [1, 19]: 0.7343
- Complete Media [1, 20]: 0.4618
- Difference [1, 10]: −0.27
- Difference [2, 22]: −0.18
- Cholesterol-free [2, 23]: 0.4744
- Complete [2, 24]: 0.2899

Molecule: C=C1CC[C@@H]2[C@](C)(CO)[C@H](O)CC[C@@]2(C)[C@@H]1C/C=C1/C(=O)OC[C@H]1O [Andrographolide]
- Cholesterol-free media + simvastatin (0.04 μM) [1, 8]: 1.859
- Difference [1, 5]: −0.94
- Cholesterol-free [2, 6]: 0.8912
- Complete [2, 14]: 0.9868
- Difference [2, 7]: 0.10

Molecule: CC(C)[C@H]1CC[C@H](C(=O)N[C@H](Cc2ccccc2)C(=O)O)CC1 [Nateglinide]
- Cholesterol-free media + simvastatin (0.04 μM) [1, 8]: 1.052
- Complete Media [1, 9]: 1.823
- Difference [1, 13]: 0.77
- Cholesterol-free [2, 6]: 1.149
- Complete [2, 14]: 1.887
- Difference [2, 7]: 0.74

Molecule: COCCCOc1ccnc(C[S+]([O-])c2nc3ccccc3[n-]2)c1C.[Na+] (centres unmarked) [Rabeprazole (sodium)]
- Cholesterol-free media + simvastatin (0.04 μM) [1, 19]: 1.461
- Complete Media [1, 20]: 0.9065
- Difference [1, 10]: −0.55
- Difference [2, 16]: −0.70
- Cholesterol-free [2, 17]: 1.634
- Complete [2, 18]: 0.9326

Molecule: CN1CCN(CC/C=C2/c3ccccc3Sc3ccc(S(=O)(=O)N(C)C)cc32)CC1 [(Z)-Thiothixene]
- Cholesterol-free media + simvastatin (0.04 μM) [1, 25]: 0.9883
- Complete Media [1, 26]: 1.062
- Difference [1, 13]: 0.07
- Difference [2, 11]: −0.29
- Cholesterol-free [2, 12]: 1.344
- Complete ([2]; NCI-H292 cells, complete media): 1.05

Molecule: CN1C(C(=O)Nc2ccccn2)=C(O)c2ccccc2S1(=O)=O [Piroxicam]
- Cholesterol-free media + simvastatin (0.04 μM) [1, 19]: 1.433
- Complete Media [1, 20]: 1.008
- Difference [1, 10]: −0.42
- Difference [2, 16]: −0.71
- Cholesterol-free [2, 17]: 1.552
- Complete [2, 18]: 0.8427

Molecule: C[C@H]1O[C@H](OC2[C@@H](O)[C@@H](O)C(O)[C@H](O)[C@H]2O)[C@@H](N)C[C@@H]1N=C(N)C(=O)O.Cl.O (some centres unmarked) [Kasugamycin (hydrochloride hydrate)]
- Cholesterol-free media + simvastatin (0.04 μM) [1, 8]: 1.288
- Difference [1, 27]: −0.14
- Difference [2, 28]: −0.06
- Cholesterol-free [2, 6]: 1.256
- Complete [2, 14]: 1.194

Molecule: Pheniramine (Maleate)
- Cholesterol-free media + simvastatin (0.04 μM) [1, 3]: 1.33
- Complete Media [1, 4]: 1.284
- Difference [1, 5]: −0.05
- Difference [2, 16]: −0.65
- Cholesterol-free [2, 17]: 1.526
- Complete [2, 18]: 0.8791

Molecule: O=C(O)C1=C(CSc2nnnn2CS(=O)(=O)O)CS[C@@H]2[C@H](NC(=O)[C@H](O)c3ccccc3)C(=O)N12 [Cefonicid (sodium)]
- Cholesterol-free media + simvastatin (0.04 μM) [1, 8]: 1.25
- Complete Media [1, 9]: 1.107
- Difference [1, 10]: −0.14
- Difference [2, 11]: 0.00
- Cholesterol-free [2, 6]: 0.833
- Complete [2, 14]: 0.8286

Molecule: Nc1ccc(C(=O)O)c(O)c1 [4-Aminosalicylic acid]
- Cholesterol-free media + simvastatin (0.04 μM) [1, 8]: 1.199
- Complete Media [1, 9]: 1.112
- Difference [1, 27]: −0.09
- Difference [2, 28]: −0.16
- Cholesterol-free [2, 23]: 1.094
- Complete [2, 24]: 0.9375

Molecule: CC(C)=CCC[C@](C)(O)[C@H]1CC[C@]2(C)[C@@H]1[C@H](O)C[C@@H]1[C@@]3(C)CC[C@H](O[C@@H]4O[C@H](CO)[C@@H](O)[C@H](O)[C@H]4O[C@@H]4O[C@H](CO)[C@@H](O)[C@H](O)[C@H]4O)C(C)(C)[C@@H]3CC[C@]12C [20(S)-Ginsenoside Rg3]
- Cholesterol-free media + simvastatin (0.04 μM) [1, 19]: 1.721
- Complete Media [1, 20]: 1.403
- Difference [1, 27]: −0.32
- Difference [2, 28]: −0.21
- Cholesterol-free [2, 12]: 1.062
- Complete ([2]; NCI-H292 cells, complete media): 0.8564

Molecule: COc1cc2nccc(Oc3ccc(NC(=O)C4(C(=O)Nc5ccc(F)cc5)CC4)cc3)c2cc1OC [Cabozantinib]
- Cholesterol-free media + simvastatin (0.04 μM) [1, 3]: 1.169
- Complete Media [1, 4]: 1.161
- Difference [1, 5]: −0.01
- Difference [2, 22]: −0.08
- Cholesterol-free [2, 23]: 1.023
- Complete [2, 24]: 0.943

Molecule: CC(C)=CCC/C(C)=C/CC/C(C)=C/CC/C(C)=C/CC1=C(C)C(=O)c2ccccc2C1=O [Menaquinone-4]
- Cholesterol-free media + simvastatin (0.04 μM) [1, 19]: 1.094
- Complete Media [1, 20]: 0.773
- Difference [1, 10]: −0.32
- Cholesterol-free [2, 12]: 1.129
- Complete ([2]; NCI-H292 cells, complete media): 0.777
- Difference [2, 21]: −0.35

Molecule: NC(=O)[C@@H]1CC[C@@H]2CN1C(=O)N2OS(=O)(=O)O [Avibactam (sodium)]
- Cholesterol-free media + simvastatin (0.04 μM) [1, 25]: 1.031
- Complete Media [1, 26]: 1.132
- Difference [1, 13]: 0.10
- Difference [2, 16]: −0.74
- Cholesterol-free [2, 17]: 1.514
- Complete [2, 18]: 0.7743
